In patent publication US6429215B1, “N-oxide of heterocyclic ester, amide, thioester, or ketone hair growth compositions and uses” (GPI NIL Holdings, Inc., priority 1998, dated 2002):

Target: FKBP12 (Homo sapiens, UniProt P62942)
Experiment: Inhibition of peptidyl-prolyl isomerase (rotamase) activity, apparent Ki
Assay type: biochemical
Conditions: chymotrypsin-coupled assay, N-succinyl-Ala-Ala-Pro-Phe-p-nitroanilide, pH 7.8
Source text: The inhibition of the prolyl peptidyl cis-trans isomerase activity of FKBP may be measured as an indicator of this affinity.
Inhibition of the peptidyl-prolyl isomerase (rotamase) activity of the compounds used in the inventive methods and pharmaceutical compositions can be evaluated by known methods described in the literature (Harding et al., Nature, 1989, 341:758-760; Holt et al. J. Am. Chem. Soc., 115:9923-9938). These values are obtained as apparent Ki's and are presented for representative compounds in TABLE II.
The cis-trans isomerization of an alanine-proline bond in a model substrate, N-succinyl-Ala-Ala-Pro-Phe-p-nitroanilide, is monitored spectrophotometrically in a chymotrypsin-coupled assay, which releases paranitroanilide from the trans form of the substrate. The inhibition of this reaction caused by the addition of different concentrations of inhibitor is determined, and the data is analyzed as a change in first-order rate constant as a function of inhibitor concentration to yield the apparent Ki values. […]
The absorbance at 390 nm versus time is monitored for 90 seconds using a spectrophotometer and the rate constants are determined from the absorbance versus time data files.

Chain of FKBP12 (P62942 whole entry, species assumed): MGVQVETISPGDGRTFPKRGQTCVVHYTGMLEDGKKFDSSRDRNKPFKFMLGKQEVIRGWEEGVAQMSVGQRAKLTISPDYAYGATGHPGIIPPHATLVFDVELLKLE

3-(3-Pyridyl)-1-propyl (2S)-1-(3,3-Dimethyl-1,2-dioxopentyl)-2-pyrrolidinecarboxylate, N-oxide [Compound 1]
Ki: 225 nM
